Data: US20210275503A1, “TARGETING HOMOLOGOUS RECOMBINATION: A NEW SYTHETIC LETHAL THERAPEUTIC PARADIGM” (Cyteir Therapeutics, Inc., priority 2020, published 2021)
Entries after “also recorded” stand apart in the source; their conditions may differ.

Experiments:
[1] = system: advanced hematologic and solid tumors; experiment: Phase 1/2 monotherapy: clinical efficacy (Lugano, RECIST v1.1); assay type: in vivo, human; settings: for time on treatment: treatment ongoing
Procedure: (§1) Compound 67A was analyzed in hematological and solid tumors. Dose escalation studies comprised of subjects with B-cell non-Hodgkin's lymphoma, chronic lymphocytic leukemia, multiple myeloma, breast cancer, head and neck cancer, soft tissue sarcoma, and ovarian cancer. Backfill studies comprised of subjects with diffuse large b-cell lymphoma (DLBCL), B-cell malignancies, pancreatic cancer, small-cell lung cancer, and HPV+HNSCC. Dosage for the Phase 1/2 monotherapy study is seen in FIG. 4.
Subjects with advanced hematologic and solid tumors were treated with continuous 28-day cycles of increasing doses of Compound 67A with an accelerated titration and 3+3 trial design. As of Dec. […] Six subjects (26.1%) experienced a Compound 67A-related adverse event with only Grade 1/2 nausea (n=3, 13%) and constipation (n=2, 8.7%) occurring in >1 subject. There were no reported Compound 67A-related myelosuppression, serious adverse events, study discontinuation, or deaths.
Ten subjects were response evaluable prior to the data cut off.

[2] = Phase 1/2 monotherapy: safety and tolerability; assay type: in vivo; settings: 23 subjects
Excerpt: as §1, with “Dose” for “Compound 67A was analyzed in hematological and solid tumors. Dose”

[3] = Compound 67A pharmacokinetics in human subjects; assay type: in vivo; settings: for Cmax / Tmax / AUC(0-t): in vivo, human subjects
Procedure: Compound 67A pharmacokinetics were analyzed in human subjects (Table 1, FIGS. 2A-2B)

[4] = Food effect pharmacokinetics, 90 mg QD, cycle 1 day 1; assay type: in vivo, human; settings: for Cmax / AUC(0-t) / Tmax: human, in vivo, oral, 90 mg, 90 mg QD, cycle 1 day 1; for Cmax / AUC(0-t): Mean ± SD; for AUC(0-t): read-out: AUC0-24; for Tmax: median (min, max)
Procedure: The food effect was evaluated with a 90 mg QD dosage during cycle 1 at day 1 (Table 2; FIG. 3).

[5] = subject with follicular lymphoma, 45 mg BID
[6] = subject with myxofibrosarcoma, 45 mg BID
[7] = subject with pancreatic cancer, 45 mg BID

Compound: CC(C)OC(=O)Nc1ccc(-c2cnc([C@H]3CC[C@H](NC(=O)OC(C)C)CC3)s2)c(S(=O)(=O)NC(C)(C)C)c1 [Compound 67A]
- metabolic activity in non-target lesions ([1]; subject with DLBCL): significant reduction in metabolic activity in non-target lesions
- target lesions ([1]; subject with DLBCL): near complete resolution of target lesions
- response ([1]; subject with DLBCL, 45 mg BID): partial responses; also recorded: confirmed partial response
- tumor change ([1]; subject with DLBCL, 45 mg BID, Lugano): −74%
- time on treatment ([1]; subject with DLBCL, 45 mg BID): ≥ 126 days
- decrease ([1]; subject with follicular lymphoma (45 mg BID), C3D1): 42%
- decrease ([1]; subject with follicular lymphoma (45 mg BID), C5D1): 47%
- response ([1]; subject with follicular lymphoma (45 mg BID, escalated to 130 mg QD at C5D1), end of the sixth month): unconfirmed partial response
- response ([1]; subject with follicular lymphoma, 30 mg BID): stable disease with evidence of clinical benefit
- decrease ([1]; subject with follicular lymphoma, 30 mg BID, C3D1): 27%
- duration of stable disease [1, 5]: ≥ 99 days
- tumor change [1, 5]: −42%
- response ([1]; subject with follicular lymphoma, 45 mg BID, at data cut off): stable disease with tumor shrinkage
- overall decrease ([1]; subject with follicular lymphoma, C7D1, after escalation to 130 mg QD at C5D1): 67%
- response ([1]; subject with leiomyosarcoma): stable disease
- change by RECIST ([1]; subject with leiomyosarcoma, six months): 0%
- decrease ([1]; subject with myxofibrosarcoma): 30%
- response [1, 6]: partial responses; also recorded: unconfirmed partial response
- tumor change ([1]; subject with myxofibrosarcoma, 45 mg BID, RECIST v1.1): −30%
- time on treatment [1, 6]: ≥ 250 days
- response ([1]; subject with ovarian cancer): stable disease
- decrease by RECIST v1.1 ([1]; subject with ovarian cancer, two months): 29%
- decrease by RECIST ([1]; subject with pancreatic cancer): 19%
- drop in CA19-9 ([1]; subject with pancreatic cancer): ≥ 70%
- duration of stable disease [1, 7]: 111 days
- response [1, 7]: stable disease with tumor shrinkage; also recorded: stable disease with evidence of clinical benefit
- tumor change [1, 7]: −19%
- Compound 67A-related myelosuppression, serious adverse events, study discontinuation, or deaths [2]: no reported
- dose-limiting toxicity ([2]; 6 cohorts (15, 20, 30, 45 mg BID; 90, 130 mg QD), 28-day cycles): No subjects experienced a dose-limiting toxicity
- Grade 1/2 constipation (related adverse event) ([2]; n=2): 8.7%
- Grade 1/2 nausea (related adverse event) ([2]; n=3): 13%
- subjects with a Compound 67A-related adverse event ([2]; six subjects): 26.1%
- Cmax ([3]; 15 mg BID): 338 ng/mL
- Tmax ([3]; 15 mg BID): 2 h
- AUC(0-t) ([3]; 15 mg BID, AUC0-12): 2630 ng·h/mL
- Cmax ([3]; 20 mg BID): 670 ng/mL
- Tmax ([3]; 20 mg BID): 2 h
- AUC(0-t) ([3]; 20 mg BID, AUC0-12): 5940 ng·h/mL
- Cmax ([3]; 30 mg BID): 1210 ng/mL
- Tmax ([3]; 30 mg BID): 2 h
- AUC(0-t) ([3]; 30 mg BID, AUC0-12): 10200 ng·h/mL
- AUC(0-t) ([3]; 45 mg BID, AUC0-12, mean ± SD, n = 2): 13500 ± 8270 ng·h/mL
- Cmax ([3]; 45 mg BID, mean ± SD): 1430 ± 362 ng/mL
- Tmax ([3]; 45 mg BID, median (min, max)): 1.5 h
- AUC(0-t) ([3]; 90 mg QD, AUC0-8, mean ± SD): 11500 ± 5570 ng·h/mL
- Cmax ([3]; 90 mg QD, mean ± SD): 1740 ± 930 ng/mL
- Tmax ([3]; 90 mg QD, median (min, max)): 2.5 h
- AUC(0-t) ([3]; 130 mg QD, AUC0-8, mean ± SD): 12800 ± 3980 ng·h/mL
- Cmax ([3]; 130 mg QD, mean ± SD): 1800 ± 438 ng/mL
- Tmax ([3]; 130 mg QD, median (min, max)): 2 h
- AUC(0-t) ([3]; 200 mg QD, AUC0-8, mean ± SD): 20600 ± 12200 ng·h/mL
- Cmax ([3]; 200 mg QD, mean ± SD): 3460 ± 2470 ng/mL
- Tmax ([3]; 200 mg QD, median (min, max)): 3.75 h
- systemic exposure versus dose ([3]; preliminary pharmacokinetic analyses, Phase 1/2 subjects): dose proportional systemic exposure
- impact of food on drug exposure ([4]; 90 mg QD food-effect cohort): minimal impact of food on drug exposure
- Cmax ([4]; Fasted Patients (n = 3)): 574 ± 304 ng/mL
- AUC(0-t) ([4]; Fasted Patients (n = 3)): 5950 ± 2900 ng·h/mL
- Tmax ([4]; Fasted Patients (n = 3)): 4 h
- Cmax ([4]; Fed Patients (n = 3)): 458 ± 129 ng/mL
- AUC(0-t) ([4]; Fed Patients (n = 3)): 6430 ± 1840 ng·h/mL
- Tmax ([4]; Fed Patients (n = 3)): 8 h
